Measured values from patent publication US11945784B2, “IRE1 small molecule inhibitors” (Cornell University, priority 2018, dated 2024).

Legend:
IRE1α [1] = molecular target: T1, IRE1α (Homo sapiens (Human), UniProt O75460); test: In vitro FRET assay; format: biochemical; settings: XBP1 RNA probe
In short: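 IRE1α (diluted to 2 nM) in citrate buffer pH 7.15 with serially diluted compound; FAM/Iowa Black-quenched XBP1 RNA probe (wildtype or non-spliceable mutant) added, fluorescence read […]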

IRE1 = IRE1 (Homo sapiens (Human), UniProt O75460); test: qPCR assay of XBP1 splicing; format: cell-based; settings: 293T cells, tunicamycin-induced ER stress
Chain of IRE1 (O75460 19-977): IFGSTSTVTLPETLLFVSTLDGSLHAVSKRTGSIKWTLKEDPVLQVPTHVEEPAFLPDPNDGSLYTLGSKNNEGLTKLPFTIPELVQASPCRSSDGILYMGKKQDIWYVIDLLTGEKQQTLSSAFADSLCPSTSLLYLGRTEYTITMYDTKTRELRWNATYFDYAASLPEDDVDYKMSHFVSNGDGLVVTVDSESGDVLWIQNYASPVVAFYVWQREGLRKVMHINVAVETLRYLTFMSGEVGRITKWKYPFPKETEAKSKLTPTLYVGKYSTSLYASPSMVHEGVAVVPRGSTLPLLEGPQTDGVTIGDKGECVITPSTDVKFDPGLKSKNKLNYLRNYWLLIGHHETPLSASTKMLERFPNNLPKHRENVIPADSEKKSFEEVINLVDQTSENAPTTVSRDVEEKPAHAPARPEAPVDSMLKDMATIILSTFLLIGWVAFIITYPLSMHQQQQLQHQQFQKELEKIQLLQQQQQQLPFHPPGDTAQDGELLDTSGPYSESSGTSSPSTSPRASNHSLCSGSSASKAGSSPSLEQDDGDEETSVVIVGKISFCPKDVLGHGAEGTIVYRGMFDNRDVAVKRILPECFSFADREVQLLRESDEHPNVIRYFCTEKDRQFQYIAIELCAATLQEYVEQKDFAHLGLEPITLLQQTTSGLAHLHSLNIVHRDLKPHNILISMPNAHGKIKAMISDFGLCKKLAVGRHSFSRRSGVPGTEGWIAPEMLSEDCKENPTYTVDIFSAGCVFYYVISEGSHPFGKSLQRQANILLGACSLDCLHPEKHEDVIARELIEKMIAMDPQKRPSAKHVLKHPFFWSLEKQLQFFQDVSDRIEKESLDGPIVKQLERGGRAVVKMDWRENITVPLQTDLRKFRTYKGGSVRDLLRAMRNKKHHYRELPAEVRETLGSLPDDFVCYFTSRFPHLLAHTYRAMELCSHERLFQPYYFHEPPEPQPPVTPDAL
Experimental: A quantitative PCR (qPCR) assay was performed to evaluate the ability of compound 17 and compound 23 to inhibit IRE1. To perform the qPCR assay, 50,000 293T cells were plated in each well of a flat-bottomed 96 well plates in duplicate. Test compounds or DMSO control were diluted to 4× their final concentration and 50 microliters were added to the cells. Compounds were incubated for 1 hour, then 50 microliters of 4× concentrated tunicamycin (8 ug/mL) were added to the cells to induce ER stress. ER stress was allowed to accumulate for 6 hours, after which the supernatant was removed and the cells were lysed with 150 uL of RLT lysis buffer (Qiagen). Samples were frozen at −80 degrees Celsius until RNA was isolated with the RNeasy 96 kit (Qiagen) according to the manufacturer's recommended protocol. The samples were used for subsequent RT-qPCR analysis of beta-actin, XBP1s, total XBP1 and SEC24D. Gene expression was evaluated by quantitative PCR for XBP1s, total XBP1 and SEC24D transcripts using the 2^(−ΔCT) method for calculating normalized gene expression. Gene expression levels were normalized to ACTB transcripts. XBP1 splicing is calculated as XBP1s expression divided by total XBP1 expression. […] See FIG. 3A (Compound 17) and FIG. 3B (Compound 23).

293T cells = test: Growth assay (cytotoxicity); format: cell-based; settings: Homo sapiens, HEK-293T, 48 h, 2 day incubation, read-out: percentage growth at 5 uM
Experimental: A growth assay is performed to evaluate the compounds disclosed in Table 1 for cytotoxicity. Briefly, 5,000,000 293T cells are resuspended in 18 mL of cDMEM for a final concentration of 277,777 cells/mL. 180 μL (50,000 cells) cDMEM was seeded per well in 96 well flat bottom plate, with some wells left unfilled. In a 96 well plate, […] cDMEM and 1 uL of any one of the compounds disclosed herein. 133.3 uL cDMEM is added to wells 1, 2, 3, 5, 6, 7, 9, 10, and 11 of row A. Wells are serially diluted with 66.7 uL (highest concentration on right, lowest on left) to the total concentrations shown below. 20 uL of each dilution is transferred in duplicate to the cells plated in the 96-well plate. The plate is then placed in a humidified chamber for a 2 day incubation, and then photographed (media is more yellow in wells with potent cell growth). Absorbance is then measured at […] (lower for more acidic media) and […] (higher for more acidic media).

IRE1α [2] = molecular target: T1, IRE1α; test: In vitro luciferase assay (IRE1α Endoribonuclease Nanoluciferase Assay); format: cell-based; settings: 293T cells, XBP1 luciferase reporter
In short: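 293T cells transiently transfected with a PGK-Luc2-P2A-XBP1u-nanoluciferase-PEST reporter for IRE1α-dependent XBP1 splicing, replated, and treated next day with ER stressors ± inhibitors. Lysates read sequentially for luminescence (OneGlo, then Stop and Glo), 1000 ms integration.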

T1 sequence (O75460 19-977): as above

SMILES | IC50 (IRE1α [1]) [nM] | IC50 (IRE1) [nM] | EC50 (IRE1α [2]) [nM] | viability at 5 µM (293T cells) [%]
COc1nc(NS(=O)(=O)c2ccccc2Cl)ccc1/C=C/c1cnc(NC2CCC(N(C)C)CC2)nc1 (centres unmarked) [Compound 17, 2-chloro-N-(5-((E)-2-(2-(((1r,4r)-4-(dimethylamino)cyclohexyl)amino)pyrimidin-5-yl)vinyl)-6-methoxypyridin-2-yl)benzenesulfonamide] | ≤ 1 | 4.95 | ≤ 5 | > 75
Cc1cc(NS(=O)(=O)c2ccccc2Cl)cc(F)c1/C=C/c1cnc(NC2CCC(N(C)C)CC2)nc1 (centres unmarked) [Compound 27, 2-chloro-N-(4-((E)-2-(2-(((1r,4r)-4-(dimethylamino)cyclohexyl)amino)pyrimidin-5-yl)vinyl)-3-fluoro-5-methylphenyl)benzenesulfonamide] | ≤ 1 |  | ≤ 5 | > 50
COc1nc(NS(=O)(=O)c2ccc(F)c(F)c2Cl)ccc1/C=C/c1cnc(NC2CCC(N(C)C)CC2)nc1 (centres unmarked) [Compound 41, 2-chloro-N-(5-((E)-2-(2-(((1r,4r)-4-(dimethylamino)cyclohexyl)amino)pyrimidin-5-yl)vinyl)-6-methoxypyridin-2-yl)-3,4-difluorobenzenesulfonamide] | ≤ 1 |  | 5 to 50 | > 75

Continued, in another order:

IC50 (IRE1α [1]) [nM] | IC50 (IRE1) [nM] | EC50 (IRE1α [2]) [nM] | SMILES | viability at 5 µM (293T cells) [%]
≤ 1 | 4.39 | ≤ 5 | Cc1nc(NS(=O)(=O)c2ccccc2Cl)ccc1/C=C/c1cnc(NC2CCC(N(C)C)CC2)nc1 (centres unmarked) [Compound 23, 2-chloro-N-(5-((E)-2-(2-(((1r,4r)-4-(dimethylamino)cyclohexyl)amino)pyrimidin-5-yl)vinyl)-6-methylpyridin-2-yl)benzenesulfonamide] | > 75
≤ 1 |  | 5 to 50 | CCc1nc(NS(=O)(=O)c2ccccc2Cl)ccc1C=Cc1cnc(NC2CCC(N)CC2)nc1 (centres unmarked) [Compound 45, N-(5-(2-(2-((1r,4r)-4-aminocyclohexyl)amino)pyrimidin-5-yl)vinyl)-6-ethylpyridin-2-yl)-2-chlorobenzenesulfonamide] | > 75
≤ 1 |  | 5 to 50 | CCc1nc(NS(=O)(=O)c2ccccc2Cl)ccc1/C=C/c1cnc(NC2CCC(NC)CC2)nc1 (centres unmarked) [Compound 47, 2-chloro-N-(6-ethyl-5-((E)-2-(2-(((1r,4r)-4-(methylamino)cyclohexyl)amino)pyrimidin-5-yl)vinyl)pyridin-2-yl)benzenesulfonamide] | > 75
